In ChEMBL document CHEMBL5465560, “Selectivity Literature for EUbOPEN Chemogenomic Library” (2024):
One block for each compound: values may come before it.

Key:
[1] = biological target: Mitogen-activated protein kinase 7 (Homo sapiens) (UniProt Q13164); assay: Selectivity interaction (KinomeScan (DiscoverX)) EUB0000699a MAPK7; details: at 10 µM
[2] = biological target: Macrophage-stimulating protein receptor (Homo sapiens, UniProt Q04912); assay: Selectivity interaction (Ambit KINOMEscan and KiNATiv profiling in Jurkat cells) EUB0000090b MST1R; assay type: cell-based; details: at 1 µM
[3] = biological target: T1, Mitogen-activated protein kinase kinase kinase 13 (Homo sapiens) (UniProt O43283); assay: Selectivity interaction (KinomeScan (DiscoverX)) EUB0001079a MAP3K13; details: at 1 µM
T1 sequence (whole entry): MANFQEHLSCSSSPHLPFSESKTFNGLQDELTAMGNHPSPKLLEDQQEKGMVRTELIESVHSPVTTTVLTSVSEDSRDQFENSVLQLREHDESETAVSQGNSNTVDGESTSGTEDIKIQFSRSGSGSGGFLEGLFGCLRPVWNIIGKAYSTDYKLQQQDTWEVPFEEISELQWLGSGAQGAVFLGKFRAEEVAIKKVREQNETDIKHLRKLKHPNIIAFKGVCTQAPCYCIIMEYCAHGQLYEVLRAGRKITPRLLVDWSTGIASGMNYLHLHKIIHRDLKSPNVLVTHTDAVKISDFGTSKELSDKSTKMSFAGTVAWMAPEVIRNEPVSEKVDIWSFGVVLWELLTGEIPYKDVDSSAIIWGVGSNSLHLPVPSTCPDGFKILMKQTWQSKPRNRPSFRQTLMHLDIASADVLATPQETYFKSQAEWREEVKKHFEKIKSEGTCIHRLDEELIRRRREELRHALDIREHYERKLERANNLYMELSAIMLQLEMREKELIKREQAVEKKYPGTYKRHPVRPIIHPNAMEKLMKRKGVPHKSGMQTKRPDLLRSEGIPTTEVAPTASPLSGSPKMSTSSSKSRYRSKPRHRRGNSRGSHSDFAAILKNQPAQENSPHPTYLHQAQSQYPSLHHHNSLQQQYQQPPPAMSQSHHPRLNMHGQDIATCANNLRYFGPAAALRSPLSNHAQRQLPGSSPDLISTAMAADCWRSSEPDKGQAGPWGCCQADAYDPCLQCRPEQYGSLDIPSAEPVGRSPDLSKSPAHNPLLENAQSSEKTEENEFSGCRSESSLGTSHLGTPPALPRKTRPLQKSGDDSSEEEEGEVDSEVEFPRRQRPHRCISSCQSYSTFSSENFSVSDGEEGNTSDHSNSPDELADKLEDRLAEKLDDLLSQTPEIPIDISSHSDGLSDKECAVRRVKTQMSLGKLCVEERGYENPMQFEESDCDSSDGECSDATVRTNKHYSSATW

[4] = biological target: T2, Mitogen-activated protein kinase 9 (Homo sapiens, UniProt P45984); assay: Selectivity interaction (SelectScreen profiling (Invitrogen)) EUB0000607a MAPK9; details: at 2 µM
[5] = biological target: Calcium/calmodulin-dependent protein kinase kinase 2 (Homo sapiens) (UniProt Q96RR4); assay: Selectivity interaction (Kinase panel (Invitrogen)) EUB0000639a CAMKK2; details: at 200 nM
[6] = biological target: T2, Mitogen-activated protein kinase 9; assay: Selectivity interaction (ActivX KiNativ screen (kinase selectivity in THP-1 cell lysates)) EUB0000639a MAPK9; assay type: subcellular; details: lysate, at 0.01 µM
[7] = biological target: T3, Ephrin type-B receptor 3 (Homo sapiens) (UniProt P54753); assay: Selectivity interaction (ProQinase) EUB0000171b EPHB3
T3 sequence (whole entry): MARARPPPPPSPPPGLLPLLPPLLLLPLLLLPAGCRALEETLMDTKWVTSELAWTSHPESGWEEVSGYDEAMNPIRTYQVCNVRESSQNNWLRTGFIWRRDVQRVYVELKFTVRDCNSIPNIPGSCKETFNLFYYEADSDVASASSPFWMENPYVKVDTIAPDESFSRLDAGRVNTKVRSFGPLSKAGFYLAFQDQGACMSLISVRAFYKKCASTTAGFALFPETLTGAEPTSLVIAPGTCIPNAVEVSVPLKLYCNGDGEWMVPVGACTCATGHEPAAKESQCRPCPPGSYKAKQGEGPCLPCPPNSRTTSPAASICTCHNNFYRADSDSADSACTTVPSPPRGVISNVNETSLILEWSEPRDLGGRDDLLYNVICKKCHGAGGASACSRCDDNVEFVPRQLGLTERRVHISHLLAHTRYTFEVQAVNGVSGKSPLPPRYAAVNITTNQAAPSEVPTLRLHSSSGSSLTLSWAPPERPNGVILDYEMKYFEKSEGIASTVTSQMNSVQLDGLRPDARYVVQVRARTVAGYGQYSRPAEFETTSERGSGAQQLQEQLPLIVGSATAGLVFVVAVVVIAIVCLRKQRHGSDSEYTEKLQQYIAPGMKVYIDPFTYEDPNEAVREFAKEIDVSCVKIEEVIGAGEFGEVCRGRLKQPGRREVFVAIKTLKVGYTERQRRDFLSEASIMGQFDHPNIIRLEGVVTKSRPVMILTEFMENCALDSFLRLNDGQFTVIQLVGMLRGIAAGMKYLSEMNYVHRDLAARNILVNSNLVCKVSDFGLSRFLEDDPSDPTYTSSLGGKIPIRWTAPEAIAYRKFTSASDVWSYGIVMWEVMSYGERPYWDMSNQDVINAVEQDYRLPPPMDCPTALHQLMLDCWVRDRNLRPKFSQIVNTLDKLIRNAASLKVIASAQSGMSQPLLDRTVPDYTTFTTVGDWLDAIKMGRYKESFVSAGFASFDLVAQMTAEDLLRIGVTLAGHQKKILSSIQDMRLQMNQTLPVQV

[8] = biological target: T4, Tyrosine-protein kinase ITK/TSK (Homo sapiens) (UniProt Q08881); assay: Selectivity interaction (Kinase panel (Z-LYTE Assay)) EUB0001632a ITK; details: at 10 µM
T4 sequence (whole entry): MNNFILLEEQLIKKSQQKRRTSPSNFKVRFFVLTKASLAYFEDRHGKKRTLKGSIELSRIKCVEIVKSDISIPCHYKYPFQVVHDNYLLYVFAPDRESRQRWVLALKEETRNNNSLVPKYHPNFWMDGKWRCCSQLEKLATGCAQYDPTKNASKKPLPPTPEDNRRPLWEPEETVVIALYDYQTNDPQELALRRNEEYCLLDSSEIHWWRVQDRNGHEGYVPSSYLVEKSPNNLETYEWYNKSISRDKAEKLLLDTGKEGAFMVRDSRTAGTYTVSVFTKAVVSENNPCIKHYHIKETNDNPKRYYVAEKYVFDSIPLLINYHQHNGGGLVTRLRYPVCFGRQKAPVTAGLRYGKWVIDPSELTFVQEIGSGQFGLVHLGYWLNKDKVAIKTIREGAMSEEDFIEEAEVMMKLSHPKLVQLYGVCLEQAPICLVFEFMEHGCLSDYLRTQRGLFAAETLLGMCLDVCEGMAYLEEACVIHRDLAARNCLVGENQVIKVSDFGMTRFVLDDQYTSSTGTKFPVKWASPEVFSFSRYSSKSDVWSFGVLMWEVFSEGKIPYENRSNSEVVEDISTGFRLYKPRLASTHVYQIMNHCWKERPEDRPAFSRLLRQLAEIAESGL

T2 sequence (P45984 whole entry, looked up): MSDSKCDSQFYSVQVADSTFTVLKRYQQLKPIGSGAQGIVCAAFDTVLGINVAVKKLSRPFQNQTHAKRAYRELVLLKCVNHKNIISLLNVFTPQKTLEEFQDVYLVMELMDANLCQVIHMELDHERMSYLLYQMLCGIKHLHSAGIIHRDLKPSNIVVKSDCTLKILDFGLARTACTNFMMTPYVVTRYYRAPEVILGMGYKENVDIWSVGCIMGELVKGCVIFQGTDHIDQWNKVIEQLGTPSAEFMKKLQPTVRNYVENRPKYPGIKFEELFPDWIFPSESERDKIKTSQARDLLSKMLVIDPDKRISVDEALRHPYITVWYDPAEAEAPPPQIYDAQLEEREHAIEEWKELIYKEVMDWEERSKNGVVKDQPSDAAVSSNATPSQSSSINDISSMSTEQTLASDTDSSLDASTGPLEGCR
Calcium/calmodulin-dependent protein kinase kinase 2 (Homo sapiens), sequence (Q96RR4 2-588 limits assumed): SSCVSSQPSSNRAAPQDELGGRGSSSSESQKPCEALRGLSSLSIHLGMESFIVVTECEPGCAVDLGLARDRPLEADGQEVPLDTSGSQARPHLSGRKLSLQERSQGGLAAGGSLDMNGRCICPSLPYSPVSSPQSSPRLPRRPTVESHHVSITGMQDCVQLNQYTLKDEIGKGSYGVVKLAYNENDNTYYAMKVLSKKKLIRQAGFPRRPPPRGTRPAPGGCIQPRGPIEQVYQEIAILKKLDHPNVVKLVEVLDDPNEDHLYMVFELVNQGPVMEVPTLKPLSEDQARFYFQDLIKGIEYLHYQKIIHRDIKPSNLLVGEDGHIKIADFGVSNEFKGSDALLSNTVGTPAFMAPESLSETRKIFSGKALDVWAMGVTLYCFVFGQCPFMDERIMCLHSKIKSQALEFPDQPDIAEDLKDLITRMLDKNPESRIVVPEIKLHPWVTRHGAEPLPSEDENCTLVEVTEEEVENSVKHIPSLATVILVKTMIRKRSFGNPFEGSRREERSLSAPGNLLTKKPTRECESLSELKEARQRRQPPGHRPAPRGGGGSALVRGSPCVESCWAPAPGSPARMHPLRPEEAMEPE
Macrophage-stimulating protein receptor, sequence (Q04912 25-304 limits assumed): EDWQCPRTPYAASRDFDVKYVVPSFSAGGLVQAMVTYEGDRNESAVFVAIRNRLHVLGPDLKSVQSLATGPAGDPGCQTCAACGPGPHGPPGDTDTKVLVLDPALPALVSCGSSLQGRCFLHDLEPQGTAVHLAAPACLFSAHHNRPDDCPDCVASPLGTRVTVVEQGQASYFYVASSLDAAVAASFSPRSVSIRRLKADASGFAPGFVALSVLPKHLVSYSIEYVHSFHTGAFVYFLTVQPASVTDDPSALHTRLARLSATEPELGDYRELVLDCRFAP
Macrophage-stimulating protein receptor, sequence (Q04912 310-1400 limits assumed): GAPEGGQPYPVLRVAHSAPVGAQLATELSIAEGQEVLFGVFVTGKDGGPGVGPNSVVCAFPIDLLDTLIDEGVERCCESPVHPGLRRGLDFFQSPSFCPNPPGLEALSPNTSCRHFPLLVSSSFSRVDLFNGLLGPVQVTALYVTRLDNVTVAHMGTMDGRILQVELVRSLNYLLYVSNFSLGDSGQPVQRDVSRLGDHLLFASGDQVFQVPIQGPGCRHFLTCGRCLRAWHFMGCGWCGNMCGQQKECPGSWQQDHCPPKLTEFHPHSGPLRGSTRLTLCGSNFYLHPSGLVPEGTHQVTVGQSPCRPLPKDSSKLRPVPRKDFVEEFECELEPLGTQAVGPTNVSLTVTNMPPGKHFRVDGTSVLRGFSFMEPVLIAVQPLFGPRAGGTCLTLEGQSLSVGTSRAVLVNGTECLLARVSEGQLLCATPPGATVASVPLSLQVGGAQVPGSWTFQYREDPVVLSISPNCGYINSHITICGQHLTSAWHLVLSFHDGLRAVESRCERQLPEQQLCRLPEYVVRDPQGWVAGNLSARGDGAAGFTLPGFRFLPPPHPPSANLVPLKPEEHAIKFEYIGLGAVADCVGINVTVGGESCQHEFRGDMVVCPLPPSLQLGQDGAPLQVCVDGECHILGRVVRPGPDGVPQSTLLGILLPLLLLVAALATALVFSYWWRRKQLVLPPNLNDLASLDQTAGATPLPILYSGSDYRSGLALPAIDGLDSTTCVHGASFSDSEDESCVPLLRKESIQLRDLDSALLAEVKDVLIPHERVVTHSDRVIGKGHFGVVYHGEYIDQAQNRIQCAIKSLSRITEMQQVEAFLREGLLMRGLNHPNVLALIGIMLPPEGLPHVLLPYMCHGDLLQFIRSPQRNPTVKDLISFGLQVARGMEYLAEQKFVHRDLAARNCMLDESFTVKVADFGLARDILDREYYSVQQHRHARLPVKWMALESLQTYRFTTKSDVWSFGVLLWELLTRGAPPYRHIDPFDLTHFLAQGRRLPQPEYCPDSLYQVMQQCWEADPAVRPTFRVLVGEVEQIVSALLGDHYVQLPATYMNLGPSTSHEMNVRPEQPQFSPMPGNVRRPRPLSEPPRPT
Mitogen-activated protein kinase 7 (Homo sapiens), sequence (Q13164 2-816 limits assumed): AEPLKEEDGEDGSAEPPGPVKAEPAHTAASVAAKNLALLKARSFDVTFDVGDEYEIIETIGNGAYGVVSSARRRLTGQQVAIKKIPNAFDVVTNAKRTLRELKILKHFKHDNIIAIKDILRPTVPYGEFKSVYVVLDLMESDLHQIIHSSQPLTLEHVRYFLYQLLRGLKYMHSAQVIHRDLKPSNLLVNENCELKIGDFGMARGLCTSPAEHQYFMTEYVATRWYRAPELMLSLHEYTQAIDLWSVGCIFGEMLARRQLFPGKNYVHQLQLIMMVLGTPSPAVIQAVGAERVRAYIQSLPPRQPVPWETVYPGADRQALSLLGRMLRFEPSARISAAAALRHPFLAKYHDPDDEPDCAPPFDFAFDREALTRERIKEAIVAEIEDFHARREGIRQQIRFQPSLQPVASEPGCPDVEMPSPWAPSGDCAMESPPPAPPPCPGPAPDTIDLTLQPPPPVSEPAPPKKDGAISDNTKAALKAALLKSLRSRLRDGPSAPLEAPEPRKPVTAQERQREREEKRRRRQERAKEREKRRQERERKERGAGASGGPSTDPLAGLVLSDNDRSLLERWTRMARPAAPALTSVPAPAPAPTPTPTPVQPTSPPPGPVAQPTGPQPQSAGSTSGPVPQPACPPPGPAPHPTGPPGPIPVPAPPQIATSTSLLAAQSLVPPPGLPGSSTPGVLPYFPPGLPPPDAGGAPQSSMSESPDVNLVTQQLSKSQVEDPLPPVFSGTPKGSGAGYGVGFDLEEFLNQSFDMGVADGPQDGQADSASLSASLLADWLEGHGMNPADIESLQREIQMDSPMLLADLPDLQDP

% of control [1]: 36%
SMILES: CCN(CC)CCCCNc1ncc2cc(-c3cc(OC)cc(OC)c3)c(NC(=O)NC(C)(C)C)nc2n1

% of control ([7]; at 1 µM): 106%
% of control ([7]; at 5 µM): 108%
SMILES: C=CC(=O)Nc1cccc(C(=O)Nc2ccc(Nc3cc(-c4[nH]c(SC)nc4C)ccn3)cc2)c1

% of control [8]: -0.395%
SMILES: Cn1cc(-n2cnc3c(NCc4nc5cc(Cl)c(Cl)cc5[nH]4)nc(N4CCOCC4)nc32)cn1

Further lines, the compound ahead of its results:

SMILES: CN(C)C/C=C/C(=O)Nc1ccc(C(=O)N2CCCC(Nc3ncc(Cl)c(-c4c[nH]c5ccccc45)n3)C2)cc1 (centres undefined)
% of control [2]: 90%

SMILES: Nc1cnc(N2CCc3cc(S(=O)(=O)Nc4c(F)cc(Cl)cc4F)cc(N4CCCC4=O)c32)nc1 [TP-020n]
% of control [3]: 100%

SMILES: CNC(=O)Nc1ccc(-c2nc(N3CC4CCC(C3)O4)c3cnn(C4CCC5(CC4)OCCO5)c3n2)cc1
% of inhibition [4]: 11%

SMILES: CC[C@@H]1[C@H](F)C(=O)N[C@@H]1COc1nccc2cc(C(N)=O)c(OC)cc12 [ZIMLOVISERTIB]
% of inhibition [5]: -1.97%
% of inhibition [6]: -10%
